According to paper PMC10447463, “Data-mining unveils structure–property–activity correlation of viral infectivity enhancing self-assembling peptides” (Nature Communications, 2023):

system: HIV-1 infection of TZM-bl cells; assay: HIV-1 infectivity enhancement assay, β-galactosidase luminescence; assay type: cell-based; conditions: input.xlsx of the Pattern-Analysis script; infectivity relative to EF-C (peptide 59 = 1.00)

Substance | infectivity
CEFEFQF [compound 90] | 0.00521
CEFEFQFNMWQ [compound 131] | 0.14
CEIEIQI [compound 2] | 0.0279
CEIEIQINM [compound 134] | 0.0651
CEIEIQINMWQ [compound 133] | 0.22
CETMYDKILKNLSRSR [compound 57] | 0.02
CHLHLQL [compound 56] | 0.10
CKAKAQA [compound 137] | 0.03
CKAKAQANM [compound 11] | 0.03
CKAKAQANMWQ [compound 10] | 0.0437
CKFC [compound 50] | 0.011
CKFKFQF [compound 6] | 1.23
CKFKFQFNM [compound 5] | 1.24
CKFKFQFNMW [compound 91] | 0.96
CKFKFQFNMWQ [compound 4] | 1.16
CKFKFQFW [compound 148] | 0.88
CKFKQFF [compound 17] | 0.00675
CKFKQFFNM [compound 16] | 0.41
CKFKQFFNMWQ [compound 15] | 0.61
CKFQC [compound 48] | 0.0227
CKIKIQI [compound 99] | 1.02
CKIKIQIII [compound 1] | 0.98
CKIKIQINM [compound 98] | 1.59

Substance | infectivity
CKIKIQINMW [compound 153] | 1.29
CKIKIQINMWQ [compound 96] | 0.70
CKIKIQIRGD [compound 109] | 0.33
CKIKQII [compound 100] | 0.04
CKIKQIINM [compound 3] | 0.50
CKIKQIINMWQ [compound 101] | 1.24
CKIKQIIRGD [compound 110] | 0.05
CKIW [compound 152] | 0.05
CKWKWQW [compound 94] | 0.25
CKYKYQY [compound 92] | 0.04
CQFQFQF [compound 112] | 0.35
CRFRFQF [compound 28] | 0.34
CRFRVPF [compound 55] | 0.02
CSISIQI [compound 132] | 0.0559
CSISIQINM [compound 135] | 0.20
EFEFQF [compound 89] | 0.00327
EIEIEIEI [compound 82] | 0.0178
EIEIQINM [compound 155] | 0.0363
EIEIQINMWQ [compound 162] | 0.13
EIKIQINM [compound 149] | 0.10
FDPFDPFDP [compound 40] | 0.0234
FKFDKFKFDK [compound 42] | 0.0464
HGDKCHGDKC [compound 35] | 0.01

Substance | infectivity
HGEHGE [compound 53] | 0.00641
HGEHGEHGE [compound 54] | 0.019
HHHHEIEIEIEI [compound 87] | 0.03
HHHHKAKAKAKAWWWW [compound 151] | 0.09
HHHHKAKAKAKAYYYY [compound 124] | 0.0131
HHHHKIKIKIKIWWWW [compound 140] | 0.38
HHHHKIKIKIKIYYYY [compound 144] | 0.68
HHHHKIKIQINMYYYY [compound 138] | 1.11
HIHIQIC [compound 29] | 0.27
HLHLPLL [compound 31] | 0.01
HRRHFRHKITKKK [compound 45] | 0.0136
IKVAVKIKIQINM [compound 150] | 0.50
ILKNLSRSRKIKIQIC [compound 128] | 0.34
ILKNLSRSRKIKIQINMWQ [compound 154] | 0.32
KAKAKAQA [compound 116] | 0.00871
KAKAQA [compound 78] | 0.0181
KAKAQANM [compound 136] | 0.009
KAKAQANMWQ [compound 66] | 0.00715
KAKQAANMWQ [compound 69] | 0.03
KFKFEFEF [compound 106] | 0.0284
KFKFKFQF [compound 118] | 0.80
KFKFQF [compound 80] | 0.06
KFKFQFF [compound 121] | 0.12

Substance | infectivity
KFKFQFFF [compound 114] | 0.40
KFKFQFN [compound 9] | 0.018
KFKFQFNM [compound 8] | 0.47
KFKFQFNMW [compound 7] | 0.45
KFKFQFNMWQ [compound 67] | 0.76
KFKFQFW [compound 147] | 0.16
KFKQFFINMWQ [compound 158] | 0.92
KFKQFFNMWQ [compound 68] | 0.09
KIEIQINM [compound 108] | 0.0348
KIKIKIKI [compound 130] | 0.0326
KIKIKIKIWW [compound 139] | 0.37
KIKIKIKIWWWW [compound 129] | 0.59
KIKIKIKIYYYY [compound 86] | 1.38
KIKIKIQI [compound 115] | 0.10
KIKIKIQINMWQ [compound 163] | 0.79
KIKIQI [compound 79] | 0.07
KIKIQIAMWQ [compound 85] | 0.39
KIKIQIC [compound 125] | 0.61
KIKIQII [compound 113] | 0.0187
KIKIQIII [compound 122] | 0.35
KIKIQIMQWN [compound 160] | 0.72
KIKIQIMWNQ [compound 159] | 0.56
KIKIQIN [compound 77] | 0.27

Substance | infectivity
KIKIQINAWQ [compound 84] | 0.54
KIKIQINM [compound 76] | 0.36
KIKIQINMAQ [compound 83] | 0.21
KIKIQINMW [compound 75] | 2.16
KIKIQINMWA [compound 81] | 0.69
KIKIQINMWQ [compound 61] | 0.30
KIKIQINMWQRGD [compound 161] | 0.0121
KIKIQINMWWQ [compound 156] | 3.21
KIKIQINMWWWQ [compound 157] | 2.75
KIKIQIRGD [compound 102] | 0.02
KIKIQIW [compound 146] | 0.14
KIKQII [compound 107] | 0.00492
KIKQIIN [compound 74] | 0.04
KIKQIINM [compound 73] | 0.45
KIKQIINMWQ [compound 65] | 0.35
KIRGKFEKED [compound 47] | 0.06
KKFQKKFQ [compound 37] | 0.0285
KLKLKLQL [compound 117] | 0.10
KLKLQLL [compound 120] | 0.00698
